Data reported in patent publication US8497274B2, “Heterocyclic compound and use thereof” (Takeda Pharmaceutical Company Limited, priority 2008, dated 2013).

Tests used:
[1] = tested on: phosphorylated ERK1/2 in A-375 tumor; test: Intratumor phosphorylated ERK inhibitory activity in malignant melanoma cell A-375 cancer-bearing rat; type: in vivo; conditions: phosphorylated ERK1/2 in A-375 tumor of nude rat, 25 mg/kg oral, 4 hrs after administration
Procedure: Human malignant melanoma cell A-375 (purchased from ATCC) was transplanted into 5-week-old nude rat (F344/N Jcl-mu/mu female (CLEA Japan, Inc.)) at 1.0×10^7 cells by subcutaneous injection. After 2-5 weeks from the transplantation, a test compound dissolved in 5% DMSO, 10% Cremophor, 20% PEG-400 and 65% distilled water was orally administered to rats having an engrafted tumor with a tumor volume of 200-800 mm^3 at a dose of 25 mg/kg body weight. After 4 hrs from the administration of the test compound, the tumor was collected under ether anesthesia and the tumor was homogenized in RIPA buffer (1% NP-40, 0.5% sodium deoxycholate, 1% SDS, 97.5% DPBS (GIBCO) with Protease Inhibitor Cocktail Set 3 (calbiochem) and Phosphatase Inhibitor Cocktail 2 (Sigma)). The protein in the tumor lysate was quantified using BCA Protein assay kit (Thermo), and the protein amount in the tumor lysate was adjusted to 1.25 μg/μL. 2×SDS sample buffer was added to the above-mentioned protein solution and the mixture was treated at 95° C. for 5 min.
Thereafter, SDS-PAGE was performed and the protein was transferred onto Sequi-Blot PVDF Membrane (Bio-Rad) by the Western blot method. The membrane was blocked with 5% (w/v) Block-Ace solution dissolved in phosphate buffered saline and reacted overnight with anti-phosphorylated ERK1/2 (Thr202/Tyr204) (Cell Signaling #9101) diluted 1000-fold with phosphate buffered saline containing 0.4% (w/v) Block-Ace. The membrane was washed with phosphate buffered saline containing 0.1% Tween20 (Wako Pure Chemical Industries, Ltd.), and reacted with HRP-labeled rabbit IgG polyclonal antibody (Cell Signaling #7074) diluted 1000-fold with phosphate buffered saline containing 0.4% Block-Ace for 1 hr at room temperature. […]
(Amersham Biosciences), and detected with luminoimage analyzer LAS-1000 (Fuji Film). The phosphorylated ERK1/2 protein inhibitory rate (%) of the test compound was calculated by the following formula. Inhibitory rate (%)=(1−(luminescence of test compound−blank)÷(luminescence of control group−blank))×100

[2] = tested on: MEK1/2 phosphorylation in human colon cancer cell HT-29; test: Colon cancer cell HT-29 intracellular MEK phosphorylation inhibitory activity in vitro; type: cell-based; conditions: HT-29 cells; for IC50: 2 hrs treatment, phosphorylated MEK1/2 Western blot; for inhibition at 0.5 µM: MEK1/2 protein phosphorylation, compound 0.5 μM, read-out: Inhibitory rate (%) at 0.5 μM
Procedure: 500 μL of a cell suspension of human colon cancer cell HT-29 (purchased from American Type Culture Collection (ATCC)) was plated in a 48-well plate (100,000 cells/well), and the cells were cultured overnight at 37° C. in the presence of 5% CO2, treated with a test compound (250 μL/well) diluted in 3-fold dilution series and cultured for 2 hrs. After 2 hrs, the culture medium containing the test compound was removed, and the cells were lysed with SDS sample buffer (100 μL/well) and heated at 95° C. for 5 min. Thereafter, the cells lysed with SDS sample buffer were applied to SDS-PAGE, and the protein was transferred onto Sequi-Blot™ PVDF Membrane (Bio-Rad) by the Western blot method. The PDVF membrane was blocked with a Block-Ace solution (Snow Brand Milk Products Co., Ltd) dissolved in phosphate buffered saline (MP Biochemicals) to 5% W/V, and reacted overnight with anti-phosphorylated MEK1/2 (Ser217/221) (Cell signaling #9121) diluted 1000-fold with phosphate buffered saline containing 0.4% Block-Ace. The membrane was washed with phosphate buffered saline containing 0.1% Tween 20 (Wako Pure Chemical Industries, Ltd.), and reacted at room temperature for 1 hr with HRP labeled rabbit IgG polyclonal antibody (Cell signaling #7074) diluted 1000-fold with phosphate buffered saline containing 0.4% Block-Ace. The membrane was washed in the same manner as above, chemical luminescence of a phosphorylated MEK1/2 protein labeled with the antibody, which was caused by ECL-plus Detection Reagent (Amersham bioscience), was detected by Luminescent Image Analyzer LAS-1000 (FUJIFILM Corporation). Taking the luminescence of the control group free of the test compound as 100%, the concentration (IC50 value) of the compound necessary for inhibiting the residual luminescence to 50% of the control group was calculated. In addition, MEK1/2 protein phosphorylation inhibitory rate (%) of the test compound at compound concentration 0.5 μM was calculated by the following formula. The results are shown in Table 2-B. Inhibitory rate (%)=(1−(luminescence of test compound−blank)÷(luminescence of control group−blank))×100

[3] = tested on: human colon cancer cell HT-29; test: Colon cancer cell HT-29 growth suppressive activity in vitro; type: cell-based
Procedure: 100 μL of a cell suspension (3,000 cells/well) of human colon cancer cell HT-29 (purchased from ATCC) was plated in a 96-well plate, and the cells were cultured at 37° C. in the presence of 5% CO2. The next day, 100 μL of culture medium containing each test compound diluted in 2-fold dilution was added, and the cells were cultured for 3 days. The culture medium containing the test compound was removed, and the cells were washed with phosphate buffered saline (MP Biochemicals). A 50% trichloroacetic acid solution was added to the final concentration of 10% (v/v), and the mixture was stood overnight at 4° C., whereby the cells were fixed to the plate. Then, a dye SRB 0.4% (w/v) solution (dissolved in 1% acetic acid) was added at 50 μl/well, whereby the cell protein was fixed and stained (Skehan et al., Journal Of National Cancer Institute, vol. 82, pp. 1107-1112, 1990). The cells were washed 3 times with 1% acetic acid solution (200 μL/well), and 100 μL of an extract (10 mM Tris buffer) was added to extract the dye. The absorbance at an absorption wavelength 550 nm was measured, and cell amount was measured as a protein amount. Taking the protein amount of the control group free of the test compound solution as 100%, the proportion of the residual protein amount of each treatment group was determined and the concentration of the compound necessary for suppressing the residual cell amount to 50% of the control (IC50 value) was calculated. In addition, cell proliferation inhibitory rate (%) of the test compound at compound concentration 10 μM was calculated by the following formula. The results are shown in Table 3-B. Inhibitory rate (%)=(1−(absorbance of test compound−blank)÷(absorbance of control group−blank))×100

SMILES | Inhibitory rate (%) [1] | IC50 [2] | inhibition at 0.5 µM [2] | IC50 ([3]; 72 h, HT-29 cells, 3 days culture, SRB staining) | inhibition at 10 µM ([3]; HT-29 cell proliferation, compound 10 μM, read-out: Inhibitory rate (%) at 10 μM)
CC(C)(C#N)c1cccc(C(=O)Nc2cccc(Oc3ccc4nc(NC(=O)C5CC5)sc4c3C#N)c2)c1Cl [Example 3, 2-chloro-N-[3-({7-cyano-2-[(cyclopropylcarbonyl)amino]-1,3-benzothiazol-6-yl}oxy)phenyl]-3-(1-cyano-1-methylethyl)benzamide] | 71% | < 0.3 µM | 86% | – | –
N#Cc1c(Oc2cccc(NC(=O)Cc3cccc(C(F)(F)F)c3)c2)ccc2nc(NC(=O)C3CC3)sc12 [Example 50, N-{7-cyano-6-[3-({[3-(trifluoromethyl)phenyl]acetyl}amino)phenoxy]-1,3-benzothiazol-2-yl}cyclopropanecarboxamide] | 76% | – | – | < 0.5 µM | 91%
N#Cc1c(Oc2ccc(F)c(NC(=O)Cc3cccc(C(F)(F)F)c3)c2)ccc2nc(NC(=O)C3CC3)sc12 [Example 53, N-{7-cyano-6-[4-fluoro-3-({[3-(trifluoromethyl)phenyl]acetyl}amino)phenoxy]-1,3-benzothiazol-2-yl}cyclopropanecarboxamide] | 88% | < 0.3 µM | 79% | – | –
